IC50, selectivity ratio and Activity data for 33 molecules are collected here from ChEMBL document CHEMBL1136884, “Antiplasmodial and antitrypanosomal activity of bicyclic amides and esters of dialkylamino acids” (Bioorg Med Chem, 2009).

By IC50 is commonly meant the point on the concentration scale where inhibition reaches its midpoint.

Calls of active or inactive are those of the source. The calls are words filed in the database; no cut-off is given here.

One series concerns L6. The experiment in a line: Cytotoxicity against rat L6 cells after 72 hrs by alamar blue assay. The conditions noted are these: L6, 72 h. In kind it is cell-based. On the technique in general: The colour change of resazurin is a common sign of viable cells or microbes.
The test system of a further series is Plasmodium falciparum. Nature of the series: Antimalarial activity against chloroquine and pyrimethamine-resistant Plasmodium falciparum K1 after 48 hrs as [3H]hypoxanthine uptake. In kind it is functional, organism-based.
A short description of series [1]: Selectivity index, ratio of IC50 for rat L6 cells to IC50 for Plasmodium falciparum K1. In kind it is toxicity, cell-based. As to conditions: L6 cells (versus Plasmodium falciparum K1), read-out: Ratio IC50.
A short description of series [2]: Selectivity index, ratio of IC50 for rat L6 cells to IC50 for Trypanosoma brucei rhodesiense. In kind it is toxicity, cell-based. The conditions noted are these: L6 cells (versus Trypanosoma brucei rhodesiense), read-out: Ratio IC50.
In series [3] the test system is Trypanosoma brucei rhodesiense. The experiment in a line: Antitrypanosomal activity against Trypanosoma brucei rhodesiense after 72 hrs by alamar blue assay. In kind it is functional, organism-based.
Series [4] relates to Plasmodium berghei. The experiment in a line: Antiplasmodial activity as increased MST against Plasmodium berghei ANKA infected Fu albino mice (Mus musculus) at 0.01 mL/kg intraperitoneal dose after 24 hrs. In kind it is functional, organism-based.
Series [5] relates to Plasmodium berghei. The experiment in a line: Antiplasmodial activity against Plasmodium berghei ANKA infected Fu albino mice (Mus musculus) at 0.01 mL/kg intraperitoneal dose at 24 hrs as parasitaemia per 1000 erythrocytes. In kind it is functional.

With `NCC(=O)OC1CC2(N3CCCC3)CC(c3ccccc3)C1C(c1ccccc1)C2` (centres undefined), the IC50 in the series on L6 worked out at 42.9 µM; in the series on Plasmodium falciparum it was 700 nM; in series [3], 230 nM. For the same molecule, the selectivity ratio amounted to 61.3 in series [1] and 187 in series [2].
Turning to `CN1CCN(CC(=O)OC2CC3(N(C)C)CC(c4ccccc4)C2C(c2ccccc2)C3)CC1` (racemic), the IC50 with L6 was 39.9 µM; with Plasmodium falciparum, 350 nM; in series [3], 130 nM. Further, the selectivity ratio in series [1] came to 114; in series [2] it was 307.
Consider `CN1CCN(CC(=O)NC2CC3(N(C)C)CC(c4ccccc4)C2C(c2ccccc2)C3)CC1` (racemic), for which the results for the IC50 (in the series with L6; in the series with Plasmodium falciparum; in series [3]) were 66.2 µM, 2580 nM and 1600 nM, respectively. The selectivity ratio in series [1] came out at 25.7; in series [2] it was 41.4.
As to `CN(C)C12CC(N)C(C(c3ccccc3)C1)C(c1ccccc1)C2` (centres undefined), the figures for the half-inhibitory concentration (IC50) (with L6; in the series with Plasmodium falciparum; in series [3]) were 40.9 µM, 610 nM and 350 nM, respectively. The selectivity ratio was determined as 67 in series [1] and 117 in series [2].
`CN1CCN(CCC(=O)NC2CC3(N4CCCCC4)CC(c4ccccc4)C2C(c2ccccc2)C3)CC1` (racemic): the concentration for half-maximal inhibition (IC50) worked out at 61.1 µM with L6, 280 nM in the series on Plasmodium falciparum and 860 nM in series [3]. Also, the selectivity ratio in series [1] was 218; in series [2], 71.
With `Nc1nc(N)nc(Nc2ccc([As]3SCC(CO)S3)cc2)n1` (centres undefined) [MELARSOPROL], the concentration for half-maximal inhibition (IC50) in the series with L6 turned out to be 7.78 µM; in series [3] it was 3.9 nM. The selectivity ratio in series [2] was found to be 2000.
For `CN1CCN(CCC(=O)N2CCC3(N4CCCC4)CC(c4ccccc4)C2C(c2ccccc2)C3)CC1` (racemic), the values for the IC50 (in the series with L6; in the series on Plasmodium falciparum; in series [3]) were 75.4 µM, 900 nM and 31900 nM, respectively. Besides, the selectivity ratio was found to be 83.8 in series [1] and 2.36 in series [2].
Regarding `CN1CCN(CC(=O)OC2CC3(N4CCCCC4)CC(c4ccccc4)C2C(c2ccccc2)C3)CC1` (racemic), the result in the series on Plasmodium berghei [4] was inactive. In addition, the IC50 in the series with L6 worked out at 29.5 µM; in the series on Plasmodium falciparum, 106 nM; in series [3], 870 nM. Also, the Activity with Plasmodium berghei [5] is given as 15%. Besides, the selectivity ratio in series [1] amounted to 278; in series [2] it was 33.9.
For the molecule `CN(C)C12CC(OC(=O)CN3CCCCC3)C(C(c3ccccc3)C1)C(c1ccccc1)C2` (centres undefined), the IC50 came out at 29.3 µM with L6, 520 nM with Plasmodium falciparum and 1990 nM in series [3]. The selectivity ratio in series [1] stood at 56.3; in series [2], 14.7.
For the molecule `O=C(CN1CCCCC1)OC1CC2(N3CCCC3)CC(c3ccccc3)C1C(c1ccccc1)C2` (centres undefined), the IC50 in the series on L6 was determined as 14.2 µM; with Plasmodium falciparum, 370 nM; in series [3], 370 nM. In addition, the selectivity ratio in series [1] and in series [2] was 38.4 throughout.
`CN1CCN(CCC(=O)NC2CC3(N4CCCC4)CC(c4ccccc4)C2C(c2ccccc2)C3)CC1` (racemic): the values for the half-inhibitory concentration (IC50) (in the series on L6; in the series with Plasmodium falciparum; in series [3]) were 86.7 µM, 2080 nM and 4150 nM, respectively. For the same molecule, the results for the selectivity ratio in series [1] and in series [2] were 41.7 and 20.9, respectively.
In the same order, the values of `NC1CC2(N3CCCCC3)CC(c3ccccc3)C1C(c1ccccc1)C2` (centres undefined) are 35 µM, 550 nM, 270 nM, 63.5 and 129.
On to `CCN(CC)CCCC(C)Nc1ccnc2cc(Cl)ccc12` (centres undefined) [CHLOROQUINE], for which, in the series with L6, the IC50 worked out at 188 µM.
`c1ccc(C2CC3(N4CCCC4)CCNC2C(c2ccccc2)C3)cc1` (centres undefined): the values for the IC50 (in the series with L6; in the series on Plasmodium falciparum; in series [3]) were 120 µM, 560 nM and 1160 nM, respectively. In addition, the selectivity ratio in series [1] was determined as 215; in series [2], 104.
Regarding `O=C(CN1CCCCC1)OC1CC2(N3CCCCC3)CC(c3ccccc3)C1C(c1ccccc1)C2` (centres undefined), the concentration for half-maximal inhibition (IC50) with L6 was determined as 60.4 µM; in the series on Plasmodium falciparum it was 180 nM; in series [3] it was 870 nM. The figures for the selectivity ratio in series [1] and in series [2] were 336 and 69.4, respectively.
For the molecule `CN1CCN(CC(=O)NC2CC3(N4CCCCC4)CC(c4ccccc4)C2C(c2ccccc2)C3)CC1` (racemic), the values for the half-inhibitory concentration (IC50) (with L6; in the series with Plasmodium falciparum; in series [3]) were 57.5 µM, 380 nM and 690 nM, respectively. Moreover, the selectivity ratio is 151 in series [1] and 83.4 in series [2].
In the case of `CCN(CC)CC(=O)OC1CC2(N3CCCC3)CC(c3ccccc3)C1C(c1ccccc1)C2` (centres undefined), the IC50 with L6 was determined as 49 µM; in the series with Plasmodium falciparum it was 200 nM; in series [3] it was 720 nM. Moreover, the selectivity ratio in series [1] was determined as 245; in series [2], 68.1.
For the molecule `O=C(CN1CCCC1)OC1CC2(N3CCCCC3)CC(c3ccccc3)C1C(c1ccccc1)C2` (centres undefined), the half-maximal inhibitory concentration (IC50) with L6 was 16.4 µM; in the series on Plasmodium falciparum, 470 nM; in series [3], 320 nM. Further, the selectivity ratio was found to be 34.9 in series [1] and 51.2 in series [2].
With `C[C@@H]1CC[C@H]2[C@@H](C)C(=O)O[C@@H]3O[C@@]4(C)CC[C@@H]1[C@]32OO4` [ARTEMISININ], the IC50 with L6 is 450 µM; with Plasmodium falciparum, 6.4 nM. Further, in series [1], the selectivity ratio amounted to 70400.
`CN1CCN(CCC(=O)NC2CC3(N(C)C)CC(c4ccccc4)C2C(c2ccccc2)C3)CC1` (racemic): the 50% inhibitory concentration (IC50) in the series on L6 was 95 µM; in the series with Plasmodium falciparum it was 4190 nM; in series [3], 2740 nM. The selectivity ratio in series [1] was determined as 22.7; in series [2], 34.7.
`CN1CCN(CC(=O)N2CCC3(N4CCCCC4)CC(c4ccccc4)C2C(c2ccccc2)C3)CC1` (racemic): the IC50 in the series with L6 came out at 177 µM; in the series on Plasmodium falciparum, 620 nM; in series [3], 92000 nM. Besides, the values for the selectivity ratio in series [1] and in series [2] were 286 and 1.93, respectively.
In the same order, the values of `CN1CCN(CC(=O)N2CCC3(N(C)C)CC(c4ccccc4)C2C(c2ccccc2)C3)CC1` (racemic) are 195 µM, 2370 nM, 45800 nM, 82.4 and 4.27.
For `CCN(CC)CC(=O)OC1CC2(N(C)C)CC(c3ccccc3)C1C(c1ccccc1)C2` (centres undefined), the 50% inhibitory concentration (IC50) stood at 30.1 µM with L6, 2720 nM in the series with Plasmodium falciparum and 610 nM in series [3]. In addition, the results for the selectivity ratio in series [1] and in series [2] were 11.1 and 49.4, respectively.
For `CN(C)C12CC(OC(=O)CN3CCCC3)C(C(c3ccccc3)C1)C(c1ccccc1)C2` (centres undefined), the half-maximal inhibitory concentration (IC50) was found to be 32.7 µM in the series with L6, 710 nM in the series on Plasmodium falciparum and 210 nM in series [3]. The selectivity ratio amounted to 46 in series [1] and 156 in series [2].
Turning to `CN1CCN(CC(=O)OC2CC3(N4CCCC4)CC(c4ccccc4)C2C(c2ccccc2)C3)CC1` (racemic), the figures for the half-inhibitory concentration (IC50) (in the series on L6; in the series with Plasmodium falciparum; in series [3]) were 24.6 µM, 540 nM and 140 nM, respectively. Besides, the selectivity ratio worked out at 45.5 in series [1] and 176 in series [2].
In the case of `CN1CCN(CC(=O)NC2CC3(N4CCCC4)CC(c4ccccc4)C2C(c2ccccc2)C3)CC1` (racemic), the 50% inhibitory concentration (IC50) is 50.2 µM with L6, 820 nM in the series on Plasmodium falciparum and 1130 nM in series [3]. For the same molecule, the selectivity ratio in series [1] amounted to 61.3; in series [2] it was 44.5.
With `CN1CCN(CCC(=O)N2CCC3(N4CCCCC4)CC(c4ccccc4)C2C(c2ccccc2)C3)CC1` (racemic), the IC50 came out at 120 µM with L6, 600 nM with Plasmodium falciparum and 30800 nM in series [3]. The values for the selectivity ratio in series [1] and in series [2] were 200 and 3.89, respectively.
Take `CN1CCN(CCC(=O)N2CCC3(N(C)C)CC(c4ccccc4)C2C(c2ccccc2)C3)CC1` (racemic): the IC50 in the series on L6 worked out at 128 µM; in the series with Plasmodium falciparum, 1740 nM; in series [3], 28200 nM. The selectivity ratio was found to be 73.5 in series [1] and 4.52 in series [2].
In the same order, the values of `CN1CCN(CC(=O)N2CCC3(N4CCCC4)CC(c4ccccc4)C2C(c2ccccc2)C3)CC1` (racemic) are 69.1 µM, 830 nM, 41100 nM, 83.2 and 1.68.
In the same order, the values of `CCN(CC)CC(=O)OC1CC2(N3CCCCC3)CC(c3ccccc3)C1C(c1ccccc1)C2` (centres undefined) are 23.9 µM, 250 nM, 560 nM, 95.7 and 42.7.
Take `CN(C)C12CCNC(C(c3ccccc3)C1)C(c1ccccc1)C2` (centres undefined): the IC50 was determined as 109 µM in the series on L6, 280 nM in the series on Plasmodium falciparum and 600 nM in series [3]. Further, the selectivity ratio in series [1] was found to be 389; in series [2] it was 181.
In the same order, the values of `c1ccc(C2CC3(N4CCCCC4)CCNC2C(c2ccccc2)C3)cc1` (centres undefined) are 89.7 µM, 640 nM, 6570 nM, 140 and 13.7.
Consider `NC1CC2(N3CCCC3)CC(c3ccccc3)C1C(c1ccccc1)C2` (centres undefined), for which the 50% inhibitory concentration (IC50) in the series on L6 was 38.1 µM; in the series with Plasmodium falciparum, 650 nM; in series [3] it was 410 nM. In addition, the values for the selectivity ratio in series [1] and in series [2] were 58.6 and 92.9, respectively.
